{
  "source": "paper PMC10959927",
  "about": "“Platinum iodido drugs show potential anti-tumor activity, affecting cancer cell metabolism and inducing ROS and senescence in gastrointestinal cancer cells” (Communications Biology, 2024)",
  "format_in_all_cases": "cell-based, human",
  "key": {"PANC1 cells [1]": {"test_system": "PANC1 cells", "assay": "Immunofluorescence of γ-H2AX and 53BP1 foci", "conditions": "PANC1, Fig. 3B; for foci/cell, number of cells in class: cell count", "experimental": "Cells (7 × 10^4) were seeded on 20 mm coverslips. […] Coverslips were incubated for 1 h with the primary antibody (Cell Signaling: H2AX Ser139 (#2595) and 53BP1 (#4937)) at room temperature, followed by a 1 h incubation with the appropriate secondary antibody. DNA was stained with DAPI. Fluorescence microscopy was performed using a NIKON Eclipse 90i. The image analysis was performed using the software program Nikon NIS-Elements and Image J."}, "AGS cells [2]": {"test_system": "AGS cells", "assay": "RT-qPCR gene expression (CDKN1A, IL6, MMP1, MAP2K3, SOD1, SOD2, CAT, MKI67, TNFRSF10D)", "experimental": "(§1) Total cellular RNA was extracted using Tri-Reagent (Life Technologies), following the manufacturer’s instructions. One μg of total RNA was primed with random primers and cDNA synthesized with an M-MLV reverse transcriptase following the manufacturer’s instructions (Promega). Target genes were amplified using a SYBR Green polymerase chain reaction assay, working with the specific primer sets listed in Table 4.\n(§2) Thermal cycling of the qPCR reaction was initiated with a denaturation step at 95 °C for 10 min. The process consisted of 40 cycles (denaturation at 95 °C for 15 sec, annealing at 60 °C for 30 sec, and elongation at 75 °C for 30 sec). PCR amplifications were carried out in a StepOne Real‐time PCR System (Applied Biosystems, 4376357). Relative mRNA levels were calculated by the delta-Ct method (2-ΔΔCt), where each 1-Ct difference equals a two-fold change in transcript abundance, using GAPDH as an endogenous gene reference. ΔΔCT represents the difference between the mean ΔCT value of the cells tested and the mean ΔCT value of the calibrator, both calculated for the same PCR run."}, "MKN45 cells [3]": {"test_system": "MKN45 cells", "assay": "RT-qPCR gene expression (CDKN1A, IL6, MMP1, MAP2K3, SOD1, SOD2, CAT, MKI67, TNFRSF10D)", "experimental": "as §1, §2"}, "PANC1 cells [4]": {"test_system": "PANC1 cells", "assay": "RT-qPCR gene expression (CDKN1A, IL6, MMP1, MAP2K3, SOD1, SOD2, CAT, MKI67, TNFRSF10D)", "experimental": "as §1, §2"}, "AGS cells [5]": {"test_system": "AGS cells", "assay": "Ratio GSH/GSSG, colorimetric kit", "in_short": "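AGS and PANC1 cells were exposed to compounds for 3 and 24 h, with H2O2 as positive control. GSSG was measured separately after 2-vinylpyridine treatment to give the GSH/GSSG ratio.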"}, "AGS cells [6]": {"test_system": "AGS cells", "assay": "Clonogenic (CFU) assay with or without NAC", "conditions": "10 days", "experimental": "(§3) For the clonogenic assay we used two different approaches. […] Then, cells were cultured in a 6-well plate at a very low concentration (2 × 10^3 cells per well) and incubated for 10 days. […] To evaluate the role of ROS in cell proliferation, we supplemented the growth medium with 0.5 mM NAC. After 10 days, the cells were fixed with 1% glutaraldehyde and stained with 0.1% crystal violet. The number of colonies was quantified directly and reflected as CFUs: Colony Forming Units."}, "MKN45 cells [7]": {"test_system": "MKN45 cells", "assay": "Clonogenic (CFU) assay with or without NAC", "conditions": "10 days", "experimental": "as §3"}, "[8]": {"conditions": "MKN45, Fig. 3C, replicate values"}, "[9]": {"conditions": "PANC1, Fig. 3C, replicate values"}},
  "note": "Where “and” joins values, the source holds several entries; their conditions need not be identical. Equal entries are not always repeated.",
  "data": [
    {"compound": "CC(C)[NH][Pt@SP3]([I])([I])[NH]C(C)C", "note": "[I5, trans-[PtI2(isopropylamine)2]]", "values": [
      {"measurement": "foci/cell, number of cells in class", "setting": "PANC1 cells [1]; class 31-45 foci/cell", "value": 7},
      {"measurement": "foci/cell, share of cells in class (Suma 100)", "setting": "PANC1 cells [1]; class 46-60 foci/cell", "value": 15.3846},
      {"measurement": "foci/cell, number of cells in class", "setting": "PANC1 cells [1]; class 46-60 foci/cell", "value": 4},
      {"measurement": "foci/cell, share of cells in class (Suma 100)", "setting": "PANC1 cells [1]; class <15 foci/cell", "value": 3.846},
      {"measurement": "foci/cell, number of cells in class", "setting": "PANC1 cells [1]; class <15 foci/cell", "value": 1},
      {"measurement": "foci/cell, share of cells in class (Suma 100)", "setting": "PANC1 cells [1]; class >61 foci/cell", "value": 26.9231},
      {"measurement": "foci/cell, number of cells in class", "setting": "PANC1 cells [1]; class >61 foci/cell", "value": 7},
      {"measurement": "CDKN1A, Fold change vs GAPDH", "setting": "AGS cells [2]; Fig. 3C, replicate values", "value": "3.618 fold change and 2.316 fold change and 5.653 fold change"},
      {"measurement": "IL-6, Fold change vs GAPDH", "setting": "AGS cells [2]; Fig. 3C, replicate values", "value": "2.065 fold change and 3.223 fold change and 3.287 fold change"},
      {"measurement": "MMP-1, Fold change vs GAPDH", "setting": "AGS cells [2]; Fig. 3C, replicate values", "value": "226.834 fold change and 185.054 fold change and 278.046 fold change"},
      {"measurement": "Fold change MAP2K3 vs GAPDH", "setting": "AGS cells [2]; Fig. 4B, replicate values", "value": "4.889 fold change and 4.056 fold change and 5.8931 fold change"},
      {"measurement": "MKI67 Fold change vs GAPDH", "setting": "AGS cells [2]; Fig. S4C", "value": "0.1267 fold change and 0.1149 fold change and 0.1396 fold change"},
      {"measurement": "TNFRSF10D Fold change vs GAPDH", "setting": "AGS cells [2]; Fig. S4C", "value": "23.1799 fold change and 20.8545 fold change and 25.7647 fold change"},
      {"measurement": "CAT (Fold change vs GAPDH)", "setting": "AGS cells [2]; mRNA vs Control = 1", "value": "0.8688 Fold change and 0.7906 Fold change and 0.9547 Fold change"},
      {"measurement": "SOD1 (Fold change vs GAPDH)", "setting": "AGS cells [2]; mRNA vs Control = 1", "value": "1.921 Fold change and 1.645 Fold change and 2.244 Fold change"},
      {"measurement": "SOD2 (Fold change vs GAPDH)", "setting": "AGS cells [2]; mRNA vs Control = 1", "value": "1.44 Fold change and 1.254 Fold change and 1.654 Fold change"},
      {"measurement": "MKI67 Fold change vs GAPDH", "setting": "MKN45 cells [3]; MKN45, Fig. S4C", "value": "0.1536 fold change and 0.123 fold change and 0.1918 fold change"},
      {"measurement": "TNFRSF10D Fold change vs GAPDH", "setting": "MKN45 cells [3]; MKN45, Fig. S4C", "value": "1.273 fold change and 0.9869 fold change and 1.641 fold change"},
      {"measurement": "CAT (Fold change vs GAPDH)", "setting": "MKN45 cells [3]; MKN45, mRNA vs Control = 1", "value": "0.5641 Fold change and 0.4321 Fold change and 0.7364 Fold change"},
      {"measurement": "SOD1 (Fold change vs GAPDH)", "setting": "MKN45 cells [3]; MKN45, mRNA vs Control = 1", "value": "2.6 Fold change and 2.293 Fold change and 2.9486 Fold change"},
      {"measurement": "SOD2 (Fold change vs GAPDH)", "setting": "MKN45 cells [3]; MKN45, mRNA vs Control = 1", "value": "1.053 Fold change and 0.9005 Fold change and 1.465 Fold change"},
      {"measurement": "CDKN1A, Fold change vs GAPDH", "setting": "MKN45 cells [3]; [8]", "value": "3.253 fold change and 2.596 fold change and 4.076 fold change"},
      {"measurement": "IL-6, Fold change vs GAPDH", "setting": "MKN45 cells [3]; [8]", "value": "0.4948 fold change and 2.435 fold change and 1.266 fold change"},
      {"measurement": "MMP-1, Fold change vs GAPDH", "setting": "MKN45 cells [3]; [8]", "value": "7.796 fold change and 5.223 fold change and 11.6341 fold change"},
      {"measurement": "Fold change MAP2K3 vs GAPDH", "setting": "MKN45 cells [3]; MKN45, Fig. 4B, replicate values", "value": "1.986 fold change and 1.696 fold change and 2.324 fold change"},
      {"measurement": "MKI67 Fold change vs GAPDH", "setting": "PANC1 cells [4]; PANC1, Fig. S4C", "value": "1.955 fold change and 1.4208 fold change and 2.69 fold change"},
      {"measurement": "TNFRSF10D Fold change vs GAPDH", "setting": "PANC1 cells [4]; PANC1, Fig. S4C", "value": "5.496 fold change and 3.924 fold change and 7.699 fold change"},
      {"measurement": "CAT (Fold change vs GAPDH)", "setting": "PANC1 cells [4]; PANC1, mRNA vs Control = 1", "value": "1.529 Fold change and 1.325 Fold change and 1.766 Fold change"},
      {"measurement": "SOD1 (Fold change vs GAPDH)", "setting": "PANC1 cells [4]; PANC1, mRNA vs Control = 1", "value": "1.806 Fold change and 1.686 Fold change and 1.679 Fold change"},
      {"measurement": "SOD2 (Fold change vs GAPDH)", "setting": "PANC1 cells [4]; PANC1, mRNA vs Control = 1", "value": "0.6164 Fold change and 0.5428 Fold change and 0.7 Fold change"},
      {"measurement": "CDKN1A, Fold change vs GAPDH", "setting": "PANC1 cells [4]; [9]", "value": "4.551 fold change and 3.906 fold change and 5.303 fold change"},
      {"measurement": "IL-6, Fold change vs GAPDH", "setting": "PANC1 cells [4]; [9]", "value": "7.572 fold change and 6.429 fold change and 8.917 fold change"},
      {"measurement": "MMP-1, Fold change vs GAPDH", "setting": "PANC1 cells [4]; [9]", "value": "12.6345 fold change and 9.391 fold change and 8.708 fold change"},
      {"measurement": "Fold change MAP2K3 vs GAPDH", "setting": "PANC1 cells [4]; PANC1, Fig. 4B, replicate values", "value": "3.332 fold change and 2.993 fold change and 3.71 fold change"},
      {"measurement": "GSH/GSSG", "setting": "AGS cells [5]; AGS, 3, relative to Control = 1", "value": "0.9172 and 0.9228 and 0.9268"},
      {"measurement": "GSH/GSSG", "setting": "AGS cells [5]; AGS, 24, relative to Control = 1", "value": "0.5757 and 0.62 and 0.7864"},
      {"measurement": "colonies (CFUs), mean ± SD", "setting": "AGS cells [6]; AGS + NAC 0.5 mM, IC25 concentration", "value": "106 ± 46"},
      {"measurement": "colonies (CFUs), mean ± SD", "setting": "AGS cells [6]; AGS + NAC 0.5 mM, IC50 concentration", "value": "2.3 ± 2.5"},
      {"measurement": "colonies (CFUs), mean ± SD", "setting": "AGS cells [6]; AGS, IC25 concentration, no NAC", "value": 0},
      {"measurement": "colonies (CFUs), mean ± SD", "setting": "AGS cells [6]; AGS, IC50 concentration, no NAC", "value": 0},
      {"measurement": "colonies (CFUs), mean ± SD", "setting": "MKN45 cells [7]; MKN45 + NAC 0.5 mM, IC25 concentration", "value": "99 ± 6"},
      {"measurement": "colonies (CFUs), mean ± SD", "setting": "MKN45 cells [7]; MKN45 + NAC 0.5 mM, IC50 concentration", "value": "52 ± 21"},
      {"measurement": "colonies (CFUs), mean ± SD", "setting": "MKN45 cells [7]; MKN45, IC25 concentration, no NAC", "value": 0},
      {"measurement": "colonies (CFUs), mean ± SD", "setting": "MKN45 cells [7]; MKN45, IC50 concentration, no NAC", "value": 0}
    ]}
  ]
}
